Reference: US20260306642A1, “STAT DEGRADERS AND USES THEREOF” (Recludix Pharma, Inc., priority 2023, published 2026)
pIC50: −log10 of the molar value.

Key:
STAT3 = target: T1, STAT3 (Homo sapiens, UniProt P40763); experiment: STAT3 Fluorescence Polarization (FP) Assay; assay type: binding
T1 construct: Recombinant STAT3 protein (STAT3(G127-I722))
How it was run: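 Recombinant STAT3 (G127–I722, 25 nM) was mixed with 2 nM 5-FAM-GpYLPQTV-NH2 probe in HEPES pH 7.4 buffer with 1% DMSO and serially diluted compound. Fluorescence polarization was read after 45 min at room temperature. IC50 came from nonlinear regression of mP versus log concentration and was binned A (≤100 nM), B (>100–1000 nM), C (>1–10 μM) or D (>10 μM).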

pSTAT6 = target: T2, pSTAT6 (Homo sapiens, UniProt P42226); experiment: MSD-pSTAT-PBMC Assay (pSTAT6, IL-4 stimulated); assay type: cell-based; settings: compound 3 hrs, then 1 ng/mL IL-4 10 min, pY641-STAT6, read-out: pSTAT6 IC50
T2 sequence (P42226 1-847): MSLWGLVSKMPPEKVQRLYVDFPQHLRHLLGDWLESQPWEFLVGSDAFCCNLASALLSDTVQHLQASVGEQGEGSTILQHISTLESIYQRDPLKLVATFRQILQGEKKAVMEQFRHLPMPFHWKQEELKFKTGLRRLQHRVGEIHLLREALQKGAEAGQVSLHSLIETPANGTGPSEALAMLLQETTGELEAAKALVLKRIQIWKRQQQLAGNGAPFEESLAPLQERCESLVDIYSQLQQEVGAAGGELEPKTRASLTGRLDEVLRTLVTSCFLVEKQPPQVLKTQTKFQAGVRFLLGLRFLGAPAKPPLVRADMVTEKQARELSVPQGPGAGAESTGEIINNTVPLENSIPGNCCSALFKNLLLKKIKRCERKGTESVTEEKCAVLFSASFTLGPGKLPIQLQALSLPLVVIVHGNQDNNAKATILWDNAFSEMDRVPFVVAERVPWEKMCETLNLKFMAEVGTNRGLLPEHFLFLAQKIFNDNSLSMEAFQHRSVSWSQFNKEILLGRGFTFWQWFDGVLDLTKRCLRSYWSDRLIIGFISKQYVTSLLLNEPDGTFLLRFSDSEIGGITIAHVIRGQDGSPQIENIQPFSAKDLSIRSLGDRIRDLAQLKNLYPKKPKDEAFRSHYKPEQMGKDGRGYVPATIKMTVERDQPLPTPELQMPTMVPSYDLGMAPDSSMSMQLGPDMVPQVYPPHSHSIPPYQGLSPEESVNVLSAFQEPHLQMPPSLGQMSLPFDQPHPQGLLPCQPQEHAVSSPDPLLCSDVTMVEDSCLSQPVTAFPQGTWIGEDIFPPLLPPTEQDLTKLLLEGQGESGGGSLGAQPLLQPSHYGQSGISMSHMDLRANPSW
Description: Cryopreserved Peripheral Blood Mononuclear Cells (PBMC) are from AllCells. Recombinant Human IL-4 and IL-6 are from Peprotech. Mouse monoclonal anti-STAT3 antibody, rabbit monoclonal anti-pY705-STAT3 antibody, rabbit monoclonal Anti-pY641-STAT6 antibody, and lysis buffer are from Cell Signaling Technology (CST). Mouse monoclonal anti-STAT6 antibody is from BioLegend. Assay plates, blocker, and anti-rabbit secondary antibody are from Meso Scale Discovery (MSD).
Cryopreserved PBMCs were thawed out and allowed to recover overnight in IMDM+10% heat-inactivated FBS prior to plating 50,000 (STAT3) or 25,000 (STAT6) cells per well in 96-well U-bottom tissue culture plates. Cells were treated with compound for 3 hrs, then stimulated with 10 ng/mL IL-6 (STAT3) or 1 ng/mL IL-4 (STAT6) for 10 min. Cells were then spun down and washed with ice-cold PBS prior to lysing the cell pellet with 1× lysis buffer (CST) with 1× HALT protease and phosphatase inhibitor cocktail (Thermo). Lysates were transferred to and incubated overnight at 4° C. with shaking in QuickPlex 96-well high bind assay plates (MSD) pre-coated overnight with 30 μL per well of […] mouse monoclonal anti-STAT3 antibody (STAT3) or 2 μg/mL mouse monoclonal anti-STAT6 antibody (STAT6) in 1× PBS, and pre-blocked for 1 hour with 3% Blocker-A (MSD). Captured protein in the assay plates were then washed and probed with 25 μL per well of […] rabbit monoclonal anti-pY705-STAT3 antibody (STAT3) or […] rabbit monoclonal Anti-pY641-STAT6 antibody (STAT6) in 1% Blocker-A for 1 hour at room temperature with shaking, then washed and probed with 25 ul per well of 1 ug/ml Sulfo-TAG Labeled Goat Anti-Rabbit Antibody (MSD) in 1% Blocker-A for 1 hour at room temperature with shaking. Assay plates were then washed and 150 μL of 1× Read Buffer-T (MSD) was added to each well prior to reading on an SQ120 MSD Plate Reader. Assay signal from each sample was subtracted by the signal from unstimulated control wells and normalized to DMSO control wells. IC50 values were calculated using Graph Pad Prism Dose-Response Nonlinear Regression with variable slope. For both pSTAT3 and pSTAT6 A=≤100 nM; B=>100-1000 nM; C=>1000-3000 nM; and D=>3 μM.

STAT6 = target: T3, STAT6 (Homo sapiens, UniProt P42226); experiment: STAT6 Fluorescence Polarization (FP) Assay; assay type: binding
T3 construct: Recombinant STAT6 protein (STAT6(W123-T658))
T3 sequence (P42226 123-658): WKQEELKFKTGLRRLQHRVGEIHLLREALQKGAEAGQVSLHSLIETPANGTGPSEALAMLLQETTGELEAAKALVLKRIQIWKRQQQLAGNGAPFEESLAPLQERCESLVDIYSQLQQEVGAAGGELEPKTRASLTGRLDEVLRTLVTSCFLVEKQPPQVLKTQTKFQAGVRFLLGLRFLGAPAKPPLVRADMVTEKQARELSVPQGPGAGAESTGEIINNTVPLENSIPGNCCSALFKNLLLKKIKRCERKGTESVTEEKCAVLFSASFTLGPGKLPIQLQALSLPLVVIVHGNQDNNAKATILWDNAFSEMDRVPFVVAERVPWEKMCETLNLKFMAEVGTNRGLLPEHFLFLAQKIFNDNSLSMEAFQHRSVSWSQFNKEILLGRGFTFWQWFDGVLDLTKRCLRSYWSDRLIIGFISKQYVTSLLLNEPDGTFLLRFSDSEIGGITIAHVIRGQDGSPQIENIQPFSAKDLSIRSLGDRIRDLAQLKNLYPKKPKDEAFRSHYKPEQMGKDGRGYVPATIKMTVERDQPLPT
How it was run: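 STAT6(W123-T658) at 250 nM with 2 nM 5-FAM-ApYKPFQDLI-NH2 probe in HEPES pH 7.4, 50 mM NaCl, EDTA, Tween 20, DTT, 1% DMSO. FP read after 45 min at room temperature; IC50 from nonlinear fit of mP versus log concentration.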

T1 sequence (P40763 127-722): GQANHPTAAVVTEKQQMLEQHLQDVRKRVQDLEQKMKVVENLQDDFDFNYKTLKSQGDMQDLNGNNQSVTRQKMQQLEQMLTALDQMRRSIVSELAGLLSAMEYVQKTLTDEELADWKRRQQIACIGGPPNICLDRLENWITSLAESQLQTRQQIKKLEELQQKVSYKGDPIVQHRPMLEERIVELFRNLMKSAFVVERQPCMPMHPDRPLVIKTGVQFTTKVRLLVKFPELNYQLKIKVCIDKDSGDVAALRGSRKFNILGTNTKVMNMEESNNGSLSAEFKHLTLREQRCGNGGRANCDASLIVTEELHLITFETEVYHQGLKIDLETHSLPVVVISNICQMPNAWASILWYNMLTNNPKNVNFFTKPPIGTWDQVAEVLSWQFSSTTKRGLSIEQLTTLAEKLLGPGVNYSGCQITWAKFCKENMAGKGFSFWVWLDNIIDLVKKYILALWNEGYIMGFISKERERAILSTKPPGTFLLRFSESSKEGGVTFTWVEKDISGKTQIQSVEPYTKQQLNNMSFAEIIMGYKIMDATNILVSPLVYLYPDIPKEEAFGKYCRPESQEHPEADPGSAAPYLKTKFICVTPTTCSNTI

Compound | pIC50 (STAT3) | pIC50 (pSTAT6) | pIC50 (STAT6)
O=C1CCC(c2ccc(OCCCCCn3ccc([C@@H]4CN(C(=O)[C@@H]5CC[C@@H]6CCCC[C@H](NC(=O)c7cc8cc(C(F)(F)P(=O)(O)O)ccc8s7)C(=O)N65)C5(CC5)C4)cc3=O)cc2)C(=O)N1 (stereo partly drawn) [Compound 17, ((2-(((3S,6S,10aS)-3-((6R)-6-(1-(5-(4-(2,6-dioxopiperidin-3-yl)phenoxy)pentyl)-2-oxo-1,2-dihydropyridin-4-yl)-4-azaspiro[2.4]heptane-4-carbonyl)-5-oxodecahydropyrrolo[1,2-a]azocin-6-yl)carbamoyl)benzo[b]thiophen-5-yl)difluoromethyl)phosphonic acid] | 5.00 to 6.00 | 5.52 to 6.00 | > 6.52
O=C1CCC(c2ccc(OCCCCCOc3cc([C@@H]4CN(C(=O)[C@@H]5CC[C@@H]6CCCC[C@H](NC(=O)c7cc8cc(C(F)(F)P(=O)(O)O)ccc8s7)C(=O)N65)C5(CC5)C4)ccn3)cc2)C(=O)N1 (stereo partly drawn) [Compound 19, ((2-(((3S,6S,10aS)-3-((6R)-6-(2-((5-(4-(2,6-dioxopiperidin-3-yl)phenoxy)pentyl)oxy)pyridin-4-yl)-4-azaspiro[2.4]heptane-4-carbonyl)-5-oxodecahydropyrrolo[1,2-a]azocin-6-yl)carbamoyl)benzo[b]thiophen-5-yl)difluoromethyl)phosphonic acid] | 5.00 to 6.00 | < 5.52 | 5.52 to 6.52
N#CC1CN(C(=O)C2CCC3CCCCC(NC(=O)c4cc5cc(C(F)(F)P(=O)(O)O)ccc5s4)C(=O)N32)CC1c1cccc(N2CCN(c3ccc4c(c3)[nH]c(=O)n4C3CCC(=O)NC3=O)CC2)c1 [Compound 22, ((2-(((3S,6S,10aS)-3-((rel-3S,4R)-3-cyano-4-(3-(4-(1-(2,6-dioxopiperidin-3-yl)-2-oxo-2,3-dihydro-1H-benzo[d]imidazol-5-yl)piperazin-1-yl)phenyl)pyrrolidine-1-carbonyl)-5-oxodecahydropyrrolo[1,2-a]azocin-6-yl)carbamoyl)benzo[b]thiophen-5-yl)difluoromethyl)phosphonic acid] | 6.00 to 7.00 | 5.52 to 6.00 | > 6.52

Second part, the compound after the results:

pIC50 (STAT3) | pIC50 (pSTAT6) | pIC50 (STAT6) | Compound
6.00 to 7.00 | 5.52 to 6.00 | 5.52 to 6.52 | N#CC1CN(C(=O)C2CCC3CCCCC(NC(=O)c4cc5cc(C(F)(F)P(=O)(O)O)ccc5s4)C(=O)N32)CC1c1cccc(OCCOCCOc2cccc3c2CN(C2CCC(=O)NC2=O)C3=O)c1 [Compound 16, ((2-(((3S,6S,10aS)-3-((rel-3S,4R)-3-cyano-4-(3-(2-(2-((2-(2,6-dioxopiperidin-3-yl)-1-oxoisoindolin-4-yl)oxy)ethoxy)ethoxy)phenyl)pyrrolidine-1-carbonyl)-5-oxodecahydropyrrolo[1,2-a]azocin-6-yl)carbamoyl)benzo[b]thiophen-5-yl)difluoromethyl)phosphonic acid]
5.00 to 6.00 | < 5.52 | 5.52 to 6.52 | O=C1CCC(n2c(=O)[nH]c3cc(N4CCC(n5ccc([C@@H]6CN(C(=O)[C@@H]7CC[C@@H]8CCCC[C@H](NC(=O)c9cc%10cc(C(F)(F)P(=O)(O)O)ccc%10s9)C(=O)N87)C7(CC7)C6)cc5=O)CC4)ccc32)C(=O)N1 (stereo partly drawn) [Compound 24, ((2-(((3S,6S,10aS)-3-((6R)-6-(1-(1-(1-(2,6-dioxopiperidin-3-yl)-2-oxo-2,3-dihydro-1H-benzo[d]imidazol-5-yl)piperidin-4-yl)-2-oxo-1,2-dihydropyridin-4-yl)-4-azaspiro[2.4]heptane-4-carbonyl)-5-oxodecahydropyrrolo[1,2-a]azocin-6-yl)carbamoyl)benzo[b]thiophen-5-yl)difluoromethyl)phosphonic acid]
5.00 to 6.00 | < 5.52 | 5.52 to 6.52 | O=C1CCC(N2Cc3c(OCCOCCOCCn4ccc([C@@H]5CN(C(=O)[C@@H]6CC[C@@H]7CCCC[C@H](NC(=O)c8cc9cc(C(F)(F)P(=O)(O)O)ccc9s8)C(=O)N76)C6(CC6)C5)cc4=O)cccc3C2=O)C(=O)N1 (stereo partly drawn) [Compound 27, ((2-(((3S,6S,10aS)-3-((6R)-6-(1-(2-(2-(2-((2-(2,6-dioxopiperidin-3-yl)-1-oxoisoindolin-4-yl)oxy)ethoxy)ethoxy)ethyl)-2-oxo-1,2-dihydropyridin-4-yl)-4-azaspiro[2.4]heptane-4-carbonyl)-5-oxodecahydropyrrolo[1,2-a]azocin-6-yl)carbamoyl)benzo[b]thiophen-5-yl)difluoromethyl)phosphonic acid]
